# Measurements from patent publication US20210380525A1, “COMPOSITIONS AND METHODS FOR THE TREATMENT OF PARKINSON'S DISEASE” (Cellix Bio Private Limited, priority 2018, published 2021).
# Assays:
# [1] = Pharmacokinetic study: plasma L-Dopa after single subcutaneous administration of CLX-SYN-G107B-C01; assay type: in vivo, Sprague-Dawley rats; conditions: lowest tested dose of 50 mg/kg s.c. compared to other doses, SD rats
# Description: (§1) The objective of this study was to determine the pharmacokinetics of L-Dopa after a single subcutaneous administration of CLX-SYN-G107B-C01 at the doses of 50, 150 and 300 mg/Kg, in male Sprague-Dawley (SD) rats.
# (§2) Three groups of 5-male rats in each (age 8-10 weeks; body weight range 198-226 g) were assigned to receive CLX-SYN-G107B-C01 at the doses of 50, 150 and 300 mg/kg, by subcutaneous route. CLX-SYN-G107B-C01 was formulated in Propylene glycol and PEG-300 for subcutaneous administration. The dose volume was 2 ml/kg.
# The blood samples (0.2 mL/time point) from the animals were collected at 0 (pre-dose), 0.083, 0.25, 0.5, 1, 2, 4, 8, 10, 24, 48 and 72 h post dosing after subcutaneous administration. The plasma samples were analyzed for L-Dopa using a fit-for-purpose LC-MS/MS method.
# [2] = Clinical signs of toxicity in the pharmacokinetic study; assay type: in vivo; conditions: single s.c. dose 50, 150 and 300 mg/Kg, male SD rats
# Description: as §1, §2
smiles,measurement,setting,value
"CCCCCCC(=O)N[C@@H](Cc1ccc(O)c(O)c1)C(=O)OCC(COC(=O)CCCCCC)OC(=O)CCCCCC (stereo partly drawn) [CLX-SYN-G107B-C01, 3-(((S)-3-(3,4-dihydroxyphenyl)-2-heptanamidopropanoyl)oxy)propane-1,2-diyl diheptanoate]",Bioavailability (comparison of doses),[1],enhanced bioavailability with low dose
same,Clinical signs of toxicity,[2],No clinical signs of toxicity were observed
